Laboratory results from patent US11098018B2, “Potassium channel inhibitors” (ACESION PHARMA ApS, priority 2017, dated 2021).

Molecular target: T1, human SK3 channel (hKCa0.2.3) (Homo sapiens, UniProt Q9UGI6)
T1 construct: expressed in transfected cells
Assay: Automated patch clamping (QPatch whole-cell)
Format: cell-based
Details: HEK-293 cells stably expressing human SK3; free calcium 400 nM; normalized to inhibitory effect of N-methyl bicuculline
Description: Automated whole cell patch-clamp recordings were performed using a QPatch 16 HT system and single-hole Qplates (Biolin Scientific, Sophion, Denmark) on HEK-293 cells stably expressing the human SK3 channel (hKCa0.2.3). Cells were cultured and prepared for experiments using normal cell culturing procedures. A total of 4-5 million cells were used per experiment. The Qpatch automatically generates giga sealing, whole-cell formation, compound application and recording of current. hKCa2.3 currents were recorded in symmetrical K^+ solutions, with an intracellular solution consisting of in mM: KCl 108; KOH/EGTA (ethylene glycol-bis(2-aminoethylether)-N,N,N′,N′-tetraacetic acid) 31.25/10; CaCl2) 8.1; MgCl2 1.2; HEPES (2-[4-(2-hydroxyethyl)piperazin-1-yl]ethanesulfonic acid) 10; KOH 15, pH adjusted to pH=7.2 with HCl. The free calcium concentration was calculated to 400 nM. The extracellular solution consisted of in mM: KCl 150; CaCl2) 0.1; MgCl2 3; HEPES 10; Glucose 10, pH=7.4 with KOH. The cells were held at 0 mV and hKCa0.2.3 currents were elicited by a linear voltage ramp from −80 mV to +80 mV (200 ms in duration) applied every 5th second. The compound application protocol consisted of 12 recording periods lasting from 50-200 s: 1) Baseline recordings in extracellular solution; 2) Application of the positive control N-methyl bicuculline (100 μM), which is characterized by full efficacy, fast on- and off-rate; 3-4) Wash-out; 5-9) Increasing concentrations of test compound to establish an IC50 value; 10-11) Wash-out; 12) positive control with compound NS8593 (N-[(1R)-1,2,3,4-tetrahydro-1-naphthalenyl]-1H-benzimidazol-2-amine) (1 μM). Data were sampled at 10 kHz, 4th order Bessel filter, cut-off frequency 3 kHz. Currents were compensated for run-down. Potency was quantified as the concentration needed to inhibit half of the SK channel activity and reported as an IC50 value. All effects of compounds of the present invention as tested were normalized to the observed inhibitory effect of N-methyl bicuculline.

SMILES	IC50 [µM]
CNC(=O)C(C)(Nc1nc2ccccc2[nH]1)c1cccc(C(F)(F)F)c1 (single isomer, unassigned; (+)) [Example 26a, (+)-2-[(1H-1,3-benzodiazol-2-yl)amino]-N-methyl-2-[3-(trifluoromethyl)phenyl]propanamide]	< 10
CN(C)C(=O)C(Nc1nc2ccccc2[nH]1)c1cccc(C(F)(F)F)c1 (single isomer, unassigned; (-)) [Example 1a, (−)2-[(1H-1,3-benzodiazol-2-yl)amino]-N,N-dimethyl-2-[3-(trifluoromethyl)phenyl]acetamide]	< 10
CNC(=O)CC(Nc1nc2ccccc2[nH]1)c1cccc(C(F)(F)F)c1 (single isomer, unassigned; (-)) [Example 2a, (−)3-[(1H-1,3-benzodiazol-2-yl)amino]-N-methyl-3-[3(trifluoromethyl)phenyl]propanamide]	< 10
CNC(=O)CCC(Nc1nc2ccccc2[nH]1)c1cccc(C(F)(F)F)c1 (single isomer, unassigned; (-)) [Example 25a, (−)-4-[(1H-1,3-benzodiazol-2-yl)amino]-N-methyl-4-[3-(trifluoromethyl)phenyl]butanamide]	< 10
CN(C)C(=O)C(Nc1nc2ccccc2[nH]1)c1cccc(C(F)(F)F)c1 (centres unmarked) [Example 1, 2-[(1H-1,3-benzodiazol-2-yl)amino]-N,N-dimethyl-2-[3-(trifluoromethyl)phenyl]acetamide]	< 10
CNC(=O)CC(Nc1nc2ccccc2[nH]1)c1cccc(C(F)(F)F)c1 (centres unmarked) [Example 2, 3-[(1H-1,3-benzodiazol-2-yl)amino]-N-methyl-3-[3(trifluoromethyl)phenyl]propanamide]	< 10
C=CCNC(=O)CC(Nc1nc2ccccc2[nH]1)c1cccc(C(F)(F)F)c1 (centres unmarked) [Example 3, 3-[(1H-1,3-benzodiazol-2-yl)amino]-N-(prop-2-en-1-yl)-3-[3-(trifluoromethyl)phenyl]propanamide]	< 10
CNC(=O)CC(Nc1nc2c(C)c(F)ccc2[nH]1)c1cccc(C(F)(F)F)c1 (centres unmarked) [Example 4, 3-[(5-fluoro-4-methyl-1H-1,3-benzodiazol-2-yl)amino]-N-methyl-3-[3-(trifluoromethyl)phenyl]propanamide]	< 10
CNC(=O)CC(Nc1nc2c(C)cccc2[nH]1)c1cccc(C(F)(F)F)c1 (centres unmarked) [Example 5, N-methyl-3-[(4-methyl-1H-1,3-benzodiazol-2-yl)amino]-3-[3-(trifluoromethyl)phenyl]propanamide]	< 10
CNC(=O)CC(Nc1nc2c(CCO)cccc2[nH]1)c1cccc(C(F)(F)F)c1 (centres unmarked) [Example 6, 3-{[4-(2-hydroxyethyl)-1H-1,3-benzodiazol-2-yl]amino}-N-methyl-3-[3-(trifluoromethyl)phenyl]propanamide]	< 100
COC(=O)C(Cc1cccc(C(F)(F)F)c1)Nc1nc2c(NC(C)=O)cccc2[nH]1 (centres unmarked) [Example 7, methyl 2-[(4-acetamido-1H-1,3-benzodiazol-2-yl)amino]-3-[3-(trifluoromethyl)phenyl]propanoate]	< 10
CNC(=O)C(Cc1cccc(C(F)(F)F)c1)Nc1nc2ccccc2[nH]1 (centres unmarked) [Example 8, 2-[(1H-1,3-benzodiazol-2-yl)amino]-N-methyl-3-[3-(trifluoromethyl)phenyl]propanamide]	< 100
CNC(=O)CC(Nc1nc2ccccc2[nH]1)c1cc(C)c(F)c(C)c1 (centres unmarked) [Example 9, 3-[(1H-1,3-benzodiazol-2-yl)amino]-3-(4-fluoro-3,5-dimethylphenyl)-N-methylpropanamide]	< 10
CNC(=O)CC(Nc1nc2ccccc2[nH]1)c1ccc(Cl)c(C)c1 (centres unmarked) [Example 10, 3-[(1H-1,3-benzodiazol-2-yl)amino]-3-(4-chloro-3-methylphenyl)-N-methylpropanamide]	< 10
CON(C)C(=O)CC(Nc1nc2ccccc2[nH]1)c1cccc(C(F)(F)F)c1 (centres unmarked) [Example 11, 3-[(1H-1,3-benzodiazol-2-yl)amino]-N-methoxy-N-methyl-3-[3-(trifluoromethyl)phenyl]propanamide]	< 10
CNC(=O)CC(Nc1nc2ccccc2[nH]1)c1cccc(SC)c1 (centres unmarked) [Example 12, 3-[(1H-1,3-benzodiazol-2-yl)amino]-N-methyl-3-[3-(methylsulfanyl)phenyl]propanamide]	< 10
CNC(=O)CC(Nc1nc2ccccc2[nH]1)c1cccc(OC(F)(F)F)c1 (centres unmarked) [Example 13, 3-[(1H-1,3-benzodiazol-2-yl)amino]-N-methyl-3-[3-(trifluoromethoxy)phenyl]propanamide]	< 10
Cc1c(F)ccc2[nH]c(NC(CC(N)=O)c3cccc(C(F)(F)F)c3)nc12 (centres unmarked) [Example 14, 3-[(5-fluoro-4-methyl-1H-1,3-benzodiazol-2-yl)amino]-3-[3-(trifluoromethyl)phenyl]propanamide]	< 10
CC(C)CNC(=O)C(Nc1nc2ccccc2[nH]1)c1cccc(C(F)(F)F)c1 (centres unmarked) [Example 15, 2-[(1H-1,3-benzodiazol-2-yl)amino]-N-(2-methylpropyl)-2-[3-(trifluoromethyl)phenyl]acetamide]	< 10
O=C(NC1CC1)C(Nc1nc2ccccc2[nH]1)c1cccc(C(F)(F)F)c1 (centres unmarked) [Example 16, 2-[(1H-1,3-benzodiazol-2-yl)amino]-N-cyclopropyl-2-[3-(trifluoromethyl)phenyl]acetamide]	< 10
CNC(=O)CC(Nc1nc2cc(F)ccc2[nH]1)c1cccc(C(F)(F)F)c1 (centres unmarked) [Example 17, 3-[(5-fluoro-1H-1,3-benzodiazol-2-yl)amino]-N-methyl-3-[3-(trifluoromethyl)phenyl]propanamide]	< 10
CNC(=O)CC(Nc1nc2cc(OC(F)(F)F)ccc2[nH]1)c1cccc(C(F)(F)F)c1 (centres unmarked) [Example 18, N-methyl-3-{[5-(trifluoromethoxy)-1H-1,3-benzodiazol-2-yl]amino}-3-[3-(trifluoromethyl)phenyl]propanamide; trifluoroacetic acid]	< 10
CNC(=O)CC(Nc1nc2c(COC)cccc2[nH]1)c1cccc(C(F)(F)F)c1 (centres unmarked) [Example 19, 3-{[4-(methoxymethyl)-1H-1,3-benzodiazol-2-yl]amino}-N-methyl-3-[3-(trifluoromethyl)phenyl]propanamide]	< 10
CNC(=O)CC(Nc1nc2c(Cl)cccc2[nH]1)c1cccc(C(F)(F)F)c1 (centres unmarked) [Example 20, 3-[(4-chloro-1H-1,3-benzodiazol-2-yl)amino]-N-methyl-3-[3-(trifluoromethyl)phenyl]propanamide]	< 10
CNC(=O)CC(Nc1nc2c(CO)cccc2[nH]1)c1cccc(SC(F)(F)F)c1 (centres unmarked) [Example 21, 3-{[4-(hydroxymethyl)-1H-1,3-benzodiazol-2-yl]amino}-N-methyl-3-{3-[(trifluoromethyl)sulfanyl]phenyl}propanamide]	< 10
CNC(=O)CC(Nc1nc2ccccc2[nH]1)c1ccc(Cl)c(Cl)c1 (centres unmarked) [Example 22, 3-[(1H-1,3-benzodiazol-2-yl)amino]-3-(3,4-dichlorophenyl)-N-methylpropanamide]	< 10
CNC(=O)CC(Nc1nc2ccccc2[nH]1)c1cccc(C(=O)OC)c1 (centres unmarked) [Example 24, methyl 3-{1-[(1H-1,3-benzodiazol-2-yl)amino]-2-(methylcarbamoyl)ethyl}benzoate]	< 10
CNC(=O)CCC(Nc1nc2ccccc2[nH]1)c1cccc(C(F)(F)F)c1 (centres unmarked) [Example 25, 4-[(1H-1,3-benzodiazol-2-yl)amino]-N-methyl-4-[3-(trifluoromethyl)phenyl]butanamide]	< 10
CNC(=O)C(C)(Nc1nc2ccccc2[nH]1)c1cccc(C(F)(F)F)c1 (centres unmarked) [Example 26, 2-[(1H-1,3-benzodiazol-2-yl)amino]-N-methyl-2-[3-(trifluoromethyl)phenyl]propanamide; trifluoroacetic acid]	< 10
